Experimental data reported in article PMC12078564 (Nature Communications, 2025).

Tests used:
CtCGT = assay: HPLC C-glycosylation assay, Michaelis-Menten fit; format: biochemical, Carthamus tinctorius; settings: read-out: apparent Km; saturated UDP-Glc as sugar donor
[1] = target: Ct2OGD1 (2-oxoglutarate-dependent dioxygenase), purified recombinant, NHS-labelled (Carthamus tinctorius); assay: MST

Km (CtCGT)	Kd [1]	Molecule
284 µM		O=C(CCc1ccc(O)cc1)c1c(O)cc(O)c([C@@H]2O[C@H](CO)[C@@H](O)[C@H](O)[C@H]2O)c1O [1a, nothofagin]
1.86 µM		O=C(CCc1ccc(O)cc1)c1c(O)cc(O)cc1O [compound 1, phloretin]
	0.541 µM	CtCGT (flavonoid di-C-glycosyltransferase, UGT708U8), purified recombinant (enzyme)
